Active and inactive are the calls of the source. The calls are words filed in the database; no cut-off is given here.
How the values were obtained:
HT-22 [1] = test: Neuroprotective activity against glutamate-induced cytotoxicity in mouse HT-22 cells assessed as increase in cell viability at 0.6 uM in presence of glutamate by calcein-AM dye/propidium iodide staining based microscopic analysis; assay type: functional
HT-22 [2] = test: Neuroprotective activity against glutamate-induced cytotoxicity in mouse HT-22 cells assessed as increase in cell viability at 1.85 to 5.5 uM in presence of glutamate by calcein-AM dye/propidium iodide staining based microscopic analysis; assay type: functional; details: dose 1.85-5.5 µM
HT-22 [3] = test: Inhibition of glutamate-induced oxidative stress in mouse HT-22 cells assessed as reduction in intracellular ROS accumulation at 0.2 to 1.8 uM in presence of glutamate by FACS analysis; assay type: functional, cell-based; details: dose 0.2-1.8 µM
HT-22 [4] = test: Inhibition of glutamate-induced oxidative stress in mouse HT-22 cells assessed as reduction in intracellular ROS accumulation at 0.2 to 3.6 uM in presence of glutamate by DCF-DA staining based fluorescence microscopic analysis; assay type: functional, cell-based; details: dose 0.2-3.6 µM
HT-22 [5] = test: Inhibition of glutamate-induced Ca2+ influx in mouse HT-22 cells assessed as reduction in intracellular Ca2+ concentration in presence of glutamate by Fluo3-AM staining based fluorescence microscopic method; assay type: functional, cell-based; details: dose 0.6-1.8 µM
[6] = target: c-Jun N-terminal kinase (Mus musculus) (UniProt Q91Y86+Q9WTU6+Q61831); test: Inhibition of glutamate-induced JNK activation in mouse HT-22 cells assessed as reduction in phosphorylated JNK protein level at 1 to 10 uM in presence of glutamate by Western blot analysis; assay type: cell-based; details: dose 1-10 µM
c-Jun N-terminal kinase (Mus musculus), sequence (Q61831 whole entry, looked up): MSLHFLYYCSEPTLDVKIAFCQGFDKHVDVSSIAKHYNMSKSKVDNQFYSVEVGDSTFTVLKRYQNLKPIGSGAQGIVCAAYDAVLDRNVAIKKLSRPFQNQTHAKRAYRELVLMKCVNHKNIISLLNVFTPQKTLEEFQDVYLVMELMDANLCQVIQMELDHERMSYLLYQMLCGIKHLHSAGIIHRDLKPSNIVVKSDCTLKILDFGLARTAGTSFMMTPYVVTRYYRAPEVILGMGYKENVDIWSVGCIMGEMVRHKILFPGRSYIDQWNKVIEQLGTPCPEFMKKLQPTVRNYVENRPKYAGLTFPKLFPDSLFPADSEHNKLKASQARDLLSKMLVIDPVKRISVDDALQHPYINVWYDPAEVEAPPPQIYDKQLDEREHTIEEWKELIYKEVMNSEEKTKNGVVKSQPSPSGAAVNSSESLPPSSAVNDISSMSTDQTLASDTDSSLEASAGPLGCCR
c-Jun N-terminal kinase (Mus musculus), sequence (Q91Y86 whole entry, looked up): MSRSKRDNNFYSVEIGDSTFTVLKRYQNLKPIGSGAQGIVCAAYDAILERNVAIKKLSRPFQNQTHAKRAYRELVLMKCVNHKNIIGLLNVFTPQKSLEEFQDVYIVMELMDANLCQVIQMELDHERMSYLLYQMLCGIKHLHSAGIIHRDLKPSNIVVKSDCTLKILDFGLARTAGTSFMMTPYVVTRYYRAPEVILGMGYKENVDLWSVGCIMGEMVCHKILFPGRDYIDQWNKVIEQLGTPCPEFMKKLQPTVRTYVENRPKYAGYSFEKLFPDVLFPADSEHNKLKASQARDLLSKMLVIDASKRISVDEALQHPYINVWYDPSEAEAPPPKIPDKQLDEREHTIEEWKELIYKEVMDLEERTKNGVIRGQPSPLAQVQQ
c-Jun N-terminal kinase (Mus musculus), sequence (Q9WTU6 whole entry, looked up): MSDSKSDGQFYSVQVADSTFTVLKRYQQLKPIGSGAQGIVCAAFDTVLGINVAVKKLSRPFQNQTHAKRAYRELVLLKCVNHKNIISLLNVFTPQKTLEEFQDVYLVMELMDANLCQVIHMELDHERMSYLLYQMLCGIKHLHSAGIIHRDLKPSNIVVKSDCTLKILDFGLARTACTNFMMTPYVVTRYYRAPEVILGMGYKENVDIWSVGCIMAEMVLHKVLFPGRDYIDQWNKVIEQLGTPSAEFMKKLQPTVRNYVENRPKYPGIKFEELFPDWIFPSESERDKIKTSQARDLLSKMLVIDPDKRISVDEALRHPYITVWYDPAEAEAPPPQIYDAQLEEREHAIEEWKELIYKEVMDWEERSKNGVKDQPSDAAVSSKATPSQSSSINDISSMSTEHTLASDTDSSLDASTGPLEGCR

HT-22 [7] = test: Inhibition of glutamate-induced ERK activation in mouse HT-22 cells assessed as reduction in phosphorylated ERK protein level at 1 to 10 uM in presence of glutamate by Western blot analysis; assay type: cell-based; details: dose 1-10 µM
[8] = target: MAP kinase p38 (Mus musculus) (UniProt P47811+O08911+Q9WUI1+Q9Z1B7); test: Inhibition of glutamate-induced p38 MAPK activation in mouse HT-22 cells assessed as reduction in phosphorylated p38 MAPK protein level at 1 to 10 uM in presence of glutamate by Western blot analysis; assay type: cell-based; details: dose 1-10 µM
HT-22 [9] = test: Inhibition of glutamate-induced apoptosis in mouse HT-22 cells assessed as reduction in Bax protein level at 1 to 10 uM incubated for 10 hrs in presence of glutamate by Western blot analysis; assay type: functional, cell-based; details: dose 1-10 µM
HT-22 [10] = test: Inhibition of glutamate-induced apoptosis in mouse HT-22 cells assessed as increase in Bcl2 protein level at 1 to 10 uM incubated for 10 hrs in presence of glutamate by Western blot analysis; assay type: functional, cell-based; details: dose 1-10 µM
HT-22 [11] = test: Inhibition of glutamate-induced AIF nuclear translocation in mouse HT-22 cells assessed as decrease in translocation of AIF from mitochondria to nucleus at 1 to 10 uM in presence of glutamate by Western blot analysis; assay type: functional, cell-based; details: dose 1-10 µM
HT-22 [12] = test: Inhibition of glutamate-induced apoptosis in mouse HT-22 cells assessed as early apoptotic cells at 0.2 uM pretreated with glutamate for 2 hrs followed by incubation with compound for 8 hrs by Annexin-V FITC and propidium iodide staining based flow cytometric analysis (reference value: 71.33%); assay type: functional; set-up: scale not given: the % may be the effect or the level left
HT-22 [13] = test: Inhibition of glutamate-induced apoptosis in mouse HT-22 cells assessed as late apoptotic cells at 0.2 uM pretreated with glutamate for 2 hrs followed by incubation with compound for 8 hrs by Annexin-V FITC and propidium iodide staining based flow cytometric analysis (reference value: 6.49%); assay type: functional; set-up: scale not given: the % may be the effect or the level left
HT-22 [14] = test: Inhibition of glutamate-induced apoptosis in mouse HT-22 cells assessed as necrotic cells at 0.2 uM pretreated with glutamate for 2 hrs followed by incubation with compound for 8 hrs by Annexin-V FITC and propidium iodide staining based flow cytometric analysis (reference value: 0.79%); assay type: functional; set-up: scale not given: the % may be the effect or the level left
HT-22 [15] = test: Inhibition of glutamate-induced apoptosis in mouse HT-22 cells assessed as early apoptotic cells at 1.85 uM pretreated with glutamate for 2 hrs followed by incubation with compound for 8 hrs by Annexin-V FITC and propidium iodide staining based flow cytometric analysis (reference value: 71.33%); assay type: functional; set-up: scale not given: the % may be the effect or the level left
HT-22 [16] = test: Inhibition of glutamate-induced apoptosis in mouse HT-22 cells assessed as late apoptotic cells at 1.85 uM pretreated with glutamate for 2 hrs followed by incubation with compound for 8 hrs by Annexin-V FITC and propidium iodide staining based flow cytometric analysis (reference value: 6.49%); assay type: functional; set-up: scale not given: the % may be the effect or the level left
HT-22 [17] = test: Inhibition of glutamate-induced apoptosis in mouse HT-22 cells assessed as necrotic cells at 1.85 uM pretreated with glutamate for 2 hrs followed by incubation with compound for 8 hrs by Annexin-V FITC and propidium iodide staining based flow cytometric analysis (reference value: 0.79%); assay type: functional; set-up: scale not given: the % may be the effect or the level left
HT-22 [18] = test: Inhibition of glutamate-induced apoptosis in mouse HT-22 cells assessed as viable cells at 1.85 uM pretreated with glutamate for 2 hrs followed by incubation with compound for 8 hrs by Annexin-V FITC and propidium iodide staining based flow cytometric analysis (reference value: 21.39%); assay type: functional; details: read-out: Activity
HT-22 [19] = test: Inhibition of glutamate-induced apoptosis in mouse HT-22 cells assessed as viable cells at 0.2 uM pretreated with glutamate for 2 hrs followed by incubation with compound for 8 hrs by Annexin-V FITC and propidium iodide staining based flow cytometric analysis (reference value: 21.39%); assay type: functional; details: read-out: Activity
HT-22 [20] = test: Neuroprotective activity against glutamate-induced cytotoxicity in mouse HT-22 cells assessed as reduction in cell death and morphological changes at 0.6 to 1.8 uM incubated for 12 hrs in presence of glutamate by phase contrast microscopic analysis; assay type: functional, cell-based; details: dose 0.6-1.8 µM
HT-22 [21] = test: Neuroprotective activity against glutamate-induced cytotoxicity in mouse HT-22 cells assessed as reduction in cell death pretreated with glutamate followed by incubation with compound for 6 hrs and measured at 16 hrs post-glutamate treatment; assay type: functional, cell-based
HT-22 [22] = test: Neuroprotective activity against glutamate-induced cytotoxicity in mouse HT-22 cells assessed as reduction in cell death pretreated with glutamate followed by incubation with compound for 8 hrs and measured at 16 hrs post-glutamate treatment; assay type: functional, cell-based
RGC-5 = test: Cytoprotective activity against glutamate-induced cytotoxicity in rat RGC-5 cells assessed as reduction in cell death; assay type: functional, cell-based
[23] = Antioxidant activity assessed as DPPH radical scavenging activity; assay type: functional
[24] = Inhibition of glutamate-induced Ca2+ influx in mouse HT-22 cells assessed as reduction in intracellular Ca2+ concentration at 0.6 to 1.8 uM in presence of glutamate by Fluo3-AM staining based fluorescence microscopic method relative to control; assay type: functional; details: dose 0.6-1.8 µM
HT-22 [25] = test: Inhibition of glutamate-induced AIF nuclear translocation in mouse HT-22 cells assessed as decrease in translocation of AIF from mitochondria to nucleus in presence of glutamate by immunostaining analysis; assay type: functional, cell-based

## CCCCCCCc1[nH]c2ccccc2c(=O)c1O
HT-22 [1]
  Activity: Active
HT-22 [2]
  Activity: inactive
HT-22 [3]
  inhibition: Active
HT-22 [4]
  inhibition: Active
HT-22 [5]
  inhibition: Dose-Dependent Effect
[6]
  inhibition: Active
HT-22 [7]
  inhibition: Active
[8]
  inhibition: Active
HT-22 [9]
  inhibition: Active
HT-22 [10]
  inhibition: Active
HT-22 [11]
  inhibition: Active
HT-22 [12]
  Activity: 55.26%
HT-22 [13]
  Activity: 5.51%
HT-22 [14]
  Activity: 1.74%
HT-22 [15]
  Activity: 0.44%
HT-22 [16]
  Activity: 1.06%
HT-22 [17]
  Activity: 0.44%
HT-22 [18]
  viability at 1.85 µM: 98.1%
HT-22 [19]
  viability at 0.2 µM: 37.5%
HT-22 [20]
  Activity: Active
HT-22 [21]
  Activity: Active
HT-22 [22]
  Activity: inactive
RGC-5
  Activity: Active
[23]
  Activity: Dose-Dependent Effect
[24]
  fold change (FC): 0.98
HT-22 [25]
  inhibition: Active
